Values of other authors, collected in US8765149B2, “Low-oil pharmaceutical emulsion compositions comprising progestogen” (Besins Healthcare Luxembourg Sarl, priority 2010, dated 2014).

System: TBI patients
Conditions: two recent clinical trials

CC(=O)[C@H]1CC[C@H]2[C@@H]3CCC4=CC(=O)CC[C@]4(C)[C@H]3CC[C@]12C [progesterone, pregn-4-ene-3,20-dione]
mortality of TBI patients: decreased mortality
safety in TBI patients: safe and well tolerated
